According to patent US10517889B2, “Modulators of SMAD7 expression” (Ionis Pharmaceuticals, Inc., priority 2017, dated 2019):
“And” between values parts separate entries of the source, which are not always exact repeats. Equal values may be shown once. Strand notation (5' to 3'): a small letter for the sugar, then the base; units joined by * are phosphorothioate-linked, units joined directly phosphodiester-linked; [ ] holds rarer units or linkages, { } end groups; capitals alone tell only the bases. k = constrained ethyl (cEt); [5mC] = 5-methylcytosine; d = 2'-deoxy (DNA)

Legend:
[1] = tested on: human SMAD7 mRNA; assay: Antisense inhibition of human SMAD7 mRNA expression in Hep3B cells by 3-10-3 cEt gapmers, 10,000 nM, electroporation (Example 2); format: cell-based; conditions: approximately 24 hours
Method in brief: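 SMAD7 mRNA was measured by real-time PCR (RTS5062) with RiboGreen total-RNA normalization, about 24 h after 10,000 nM gapmer was delivered by electroporation into Hep3B cells at 20,000 per well. Gapmers were 16-mer 3-10-3 cEt, fully phosphorothioate; values are % inhibition versus untreated controls.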

[2] = tested on: human SMAD7 mRNA; assay: Dose-dependent inhibition of human SMAD7 mRNA expression in Hep3B cells (Example 3, Study 1 and 2); format: cell-based; conditions: electroporation; for % inhibition of SMAD7 mRNA expression: approximately 16 hours; for IC50: Study 2 (740-20000 nM)
Method: The antisense oligonucleotides were tested in a series of experiments that had similar culture conditions as described below.
(§1) Cells were plated at a density of 20,000 cells per well and transfected using electroporation with 0.31 μM, 1.25 μM, 5.00 μM, or 20.00 μM concentrations of antisense oligonucleotide, as specified in the Tables below. ION 483663 was included in the assays for comparison. After a treatment period of approximately 16 hours, RNA was isolated from the cells and SMAD7 mRNA levels were measured by quantitative real-time PCR. Primer probe set RTS5062 was used to measure human SMAD7 mRNA levels. SMAD7 mRNA levels were adjusted according to total RNA content, as measured by RIBOGREEN®. Results are presented as percent inhibition of SMAD7 mRNA expression, relative to untreated control cells.
The half maximal inhibitory concentration (IC50) of each oligonucleotide is also presented.
as §1, with “0.74” for “0.31”, “2.22” for “1.25”, “6.67” for “5.00”, “below.” for “below. ION 483663 was included in the assays for comparison.”

[3] = Hep3B cells, electroporation with 10,000 nM antisense oligonucleotide, primer probe set RTS5062, relative to untreated control cells
[4] = 740 nM, Study 2, relative to untreated control cells
[5] = Hep3B cells, electroporation with 10,000 nM antisense oligonucleotide, SMAD7 mRNA by RT-PCR (RTS5062), relative to untreated control cells
[6] = Hep3B cells, electroporation, 10,000 nM antisense oligonucleotide, RTS5062, relative to untreated control cells

| Substance | % inhibition of SMAD7 mRNA expression [1, 3] | % inhibition of SMAD7 mRNA expression [2, 4] | % inhibition of SMAD7 mRNA expression ([2]; 2220 nM, Study 2) | % inhibition of SMAD7 mRNA expression ([2]; 6670.0 nM, Study 2) | % inhibition of SMAD7 mRNA expression ([2]; 20000.0 nM, Study 2) | IC50 [2] | % Inhibition [1, 5] | % Inhibition ([1]; SMAD7 mRNA, Hep3B cells, 10,000 nM antisense oligonucleotide, electroporation, primer probe set RTS5062, relative to untreated control cells) | % inhibition of SMAD7 mRNA expression [1, 6] | % Inhibition ([1]; Hep3B cells, electroporation with 10,000 nM antisense oligonucleotide, RTS5062, percent inhibition of SMAD7 mRNA relative to untreated control cells) |
| --- | --- | --- | --- | --- | --- | --- | --- | --- | --- | --- |
| 799382 (antisense kA*k[5mC]*kT*dT*dT*dT*dA*dG*d[5mC]*dA*dA*dA*d[5mC]*kA*kG*kA) [compound 799382] | 82% | 0% | 36% | 56% | 75% | 3 µM |  |  |  |  |
| 799396 (antisense kT*kG*kT*dT*dA*d[5mC]*dA*dA*dA*dT*dA*d[5mC]*dA*kG*kA*kG) [compound 799396] |  |  | 52% and 38% | 72% and 70% | 78% and 85% |  | 69% | 66% |  |  |
| 799402 (antisense kG*kG*kT*d[5mC]*dA*d[5mC]*dT*dG*dT*dT*d[5mC]*dT*d[5mC]*kT*k[5mC]*kT) [compound 799402] | 66% | 0% | 3% | 13% | 50% | 10 µM |  |  |  |  |
| 799404 (antisense kG*kG*kA*dA*d[5mC]*dA*dT*dT*dT*dA*d[5mC]*d[5mC]*d[5mC]*k[5mC]*kT*kG) [compound 799404] | 68% | 15% | 39% | 42% | 59% | 2 µM |  |  |  |  |
| 799406 (antisense kG*kG*kG*dA*dA*d[5mC]*dA*dT*dG*dG*d[5mC]*d[5mC]*dT*kT*kT*k[5mC]) [compound 799406] | 65% | 30% | 51% | 77% | 84% | 3 µM |  |  |  |  |
| 799410 (antisense kT*k[5mC]*kT*dG*dT*dT*dT*dA*d[5mC]*dA*d[5mC]*dA*d[5mC]*kA*kT*kT) [compound 799410] |  | 26% | 42% | 64% | 74% | 2 µM | 79% |  |  |  |
| 799412 (antisense kT*kT*k[5mC]*dT*dT*dA*d[5mC]*dA*d[5mC]*dA*dG*d[5mC]*dA*kG*k[5mC]*kG) [compound 799412] |  | 35% | 51% | 67% | 65% | 4 µM | 60% |  |  |  |
| 799429 (antisense k[5mC]*kA*k[5mC]*dA*dA*dG*dT*d[5mC]*dA*d[5mC]*dA*dA*d[5mC]*kT*kG*kG) [compound 799429] |  | 24% | 50% | 60% | 63% | 7 µM | 74% |  |  |  |
| 799467 (antisense kG*k[5mC]*kA*dG*dA*d[5mC]*dA*dG*dA*dA*dG*d[5mC]*dT*k[5mC]*kT*kA) [compound 799467] |  | 4% | 27% | 65% | 57% | > 20 µM | 69% |  |  |  |
| 799471 (antisense k[5mC]*kA*k[5mC]*dA*dG*dA*dA*dA*dA*dG*d[5mC]*dT*d[5mC]*k[5mC]*kG*k[5mC]) [compound 799471] |  | 0% | 9% | 14% | 46% | 5 µM | 71% |  |  |  |
| 799486 (antisense k[5mC]*kA*kT*dA*dA*dT*dG*dA*d[5mC]*dT*dT*dA*dT*k[5mC]*k[5mC]*kA) [compound 799486] |  | 20% | 17% | 57% | 88% | 11 µM | 52% |  |  |  |
| 799496 (antisense kG*kG*kG*dT*dG*dA*dG*dG*dT*dG*dG*d[5mC]*dT*kG*k[5mC]*kG) [compound 799496] | 72% | 3% | 12% | 34% | 69% | 3 µM |  |  |  |  |
| 799509 (antisense kA*kG*kA*dA*dA*d[5mC]*dA*dG*dT*d[5mC]*dT*d[5mC]*d[5mC]*kA*k[5mC]*kA) [compound 799509] |  | 21% | 54% | 69% | 87% | 12 µM | 57% |  |  |  |
| 799511 (antisense kT*kA*kA*dT*dG*dA*d[5mC]*dA*dA*dT*dT*d[5mC]*d[5mC]*kA*kG*k[5mC]) [compound 799511] |  | 0% | 0% | 35% | 65% | 3 µM | 65% |  |  |  |
| 799534 (kG*kA*kG*dA*dA*dT*dG*dA*dA*dG*dT*d[5mC]*d[5mC]*kA*kG*kA; antisense) [compound 799534] |  | 16% | 60% | 51% | 86% | 1 µM |  |  | 68% |  |
| 799540 (kA*kG*k[5mC]*dT*dG*dA*dA*dG*d[5mC]*d[5mC]*d[5mC]*d[5mC]*d[5mC]*k[5mC]*kA*kA; antisense) [compound 799540] |  | 41% | 60% | 63% | 73% | 5 µM |  |  | 76% |  |
| 799543 (kT*k[5mC]*kA*dA*dA*dT*dG*d[5mC]*dA*dT*dG*dA*dG*kT*kT*kA; antisense) [compound 799543] |  | 13% | 26% | 61% | 75% | 5 µM |  |  | 65% |  |
| 799544 (kT*kT*k[5mC]*dA*dA*d[5mC]*dA*dA*dG*dT*dT*d[5mC]*d[5mC]*k[5mC]*kT*kA; antisense) [compound 799544] |  | 19% | 38% | 54% | 73% | 4 µM |  |  |  | 72% |
| 799556 (kA*k[5mC]*kA*dA*d[5mC]*dA*dA*dT*dG*d[5mC]*dT*d[5mC]*dT*kG*kG*k[5mC]; antisense) [compound 799556] |  | 0% | 50% | 71% | 71% | 2 µM |  |  | 68% |  |
